In the supplement of paper PMC10307832:

Key:
Experiment in all cases: relative viability (nuclei count vs DMSO), 5 days (fraction); higher = more cells survive
IU1-47 + Alpelisib = compound: CC1=CC(=C(N1C2=CC=C(C=C2)Cl)C)C(=O)CN3CCCCC3 [IU1-47] + Cc1nc(NC(=O)N2CCC[C@H]2C(N)=O)sc1-c1ccnc(C(C)(C)C(F)(F)F)c1 [Alpelisib] (partner 2 µM)
How it was run: (§1)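 Dosing by pin tool came one day after lung cancer cell lines were seeded in 1536-well plates, using either one drug or a fixed anchor-drug dose plus five library-drug doses (not always all listed) in √10 steps. After 5 days, nuclei were counted on 4× images. Relative viability is treated-well nuclei count divided by vehicle-well nuclei count, and values are medians of duplicate plates.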

IU1-47 + Olaparib = compound: CC1=CC(=C(N1C2=CC=C(C=C2)Cl)C)C(=O)CN3CCCCC3 [IU1-47] + O=C(c1cc(Cc2n[nH]c(=O)c3ccccc23)ccc1F)N1CCN(C(=O)C2CC2)CC1 [Olaparib] (partner 8 µM)
How it was run: as §1

FG-4592 + Bortezomib = compound: Cc1nc(C(=O)NCC(=O)O)c(O)c2ccc(Oc3ccccc3)cc12 [FG-4592] + CC(C)C[C@H](NC(=O)[C@H](Cc1ccccc1)NC(=O)c1cnccn1)B(O)O [Bortezomib] (partner 0.002 µM)
How it was run: as §1

FG-4592 + Linsitinib = compound: Cc1nc(C(=O)NCC(=O)O)c(O)c2ccc(Oc3ccccc3)cc12 [FG-4592] + C[C@]1(O)C[C@@H](c2nc(-c3ccc4ccc(-c5ccccc5)nc4c3)c3c(N)nccn32)C1 [Linsitinib] (partner 1 µM)
How it was run: as §1

Cell Line	relative viability (IU1-47 + Alpelisib; first compound 0.08 µM)	relative viability (IU1-47 + Alpelisib; first compound 0.253 µM)	relative viability (IU1-47 + Alpelisib; first compound 0.8 µM)	relative viability (IU1-47 + Alpelisib; first compound 8 µM)	relative viability (IU1-47 + Olaparib; first compound 0.08 µM)	relative viability (IU1-47 + Olaparib; first compound 0.253 µM)	relative viability (IU1-47 + Olaparib; first compound 0.8 µM)	relative viability (IU1-47 + Olaparib; first compound 8 µM)	relative viability (FG-4592 + Bortezomib; first compound 0.08 µM)	relative viability (FG-4592 + Bortezomib; first compound 0.8 µM)	relative viability (FG-4592 + Bortezomib; first compound 2.53 µM)	relative viability (FG-4592 + Bortezomib; first compound 8 µM)	relative viability (FG-4592 + Linsitinib; first compound 0.08 µM)	relative viability (FG-4592 + Linsitinib; first compound 0.8 µM)	relative viability (FG-4592 + Linsitinib; first compound 2.53 µM)	relative viability (FG-4592 + Linsitinib; first compound 8 µM)	relative viability (IU1-47 + Olaparib; first compound 2.53 µM)	relative viability (IU1-47 + Alpelisib; first compound 2.53 µM)	relative viability (FG-4592 + Bortezomib; first compound 0.253 µM)	relative viability (FG-4592 + Linsitinib; first compound 0.253 µM)
ABC-1	1.12	1.3	0.977	1.1	1.14	1.05	0.816	0.907	0.365	0.308	0.359	0.22	0.92	0.722	0.8	0.844	–	–	–	–
SW 900	–	–	–	–	0.859	–	1.19	0.976	–	–	–	–	–	–	–	–	1.11	–	–	–
NCI-H838	1.04	1.03	1.05	0.859	0.809	0.799	0.774	0.58	0.893	0.697	0.663	0.747	1.1	1.01	1.04	0.938	0.911	1.08	0.923	0.941
NCI-H1648	–	–	–	–	1.16	1.17	0.813	0.577	–	–	–	–	–	–	–	–	0.656	–	–	–
A549	0.795	0.767	0.751	0.642	0.467	0.28	0.324	0.371	–	–	–	–	0.476	–	0.546	0.588	–	0.936	–	0.549
A-427	1.09	1.08	1.14	1.04	0.81	0.811	0.716	0.711	0.925	0.983	0.946	0.954	1.06	1.06	1.14	1.1	0.82	–	0.979	1.05
NCI-H1792	0.824	0.708	0.647	0.55	0.659	0.481	0.365	0.215	0.985	0.998	0.883	0.923	0.522	0.487	0.577	0.567	0.384	0.444	0.753	0.411
LCLC-97TM1	0.276	0.248	0.249	0.242	0.44	0.461	0.352	0.21	0.77	0.884	0.71	0.301	0.179	0.17	–	0.183	–	–	0.522	0.191
NCI-H1703	0.264	0.273	0.286	0.301	0.387	0.39	0.447	0.487	0.334	0.355	0.186	0.274	0.837	0.679	0.755	0.617	0.355	0.355	0.327	0.55
LCLC-103H	0.854	0.989	0.983	1.05	0.794	0.831	0.779	0.737	1.04	1.02	1.09	1.15	0.969	0.89	1.1	0.854	0.77	0.914	1.01	1.1
PC-3 [JPC-3]	1.08	0.982	1.04	1.01	1.19	1.2	1.14	1.04	0.824	0.872	0.884	0.832	0.965	0.969	1.04	1.01	1.11	–	0.745	0.974
BEN	1.06	1.13	1.24	0.834	1.1	1.06	1.12	0.933	0.608	0.701	0.825	0.546	0.85	0.692	0.934	0.602	1.11	0.973	0.733	0.748
NCI-H1666	0.882	0.903	0.812	0.836	0.757	0.681	0.79	0.759	0.839	0.705	0.701	0.537	0.781	0.769	0.831	0.677	0.713	1.03	0.843	0.884
LC-2-ad	0.897	0.951	0.919	0.767	0.726	0.711	0.673	0.732	0.98	0.973	1.05	0.878	0.81	0.878	0.816	0.911	–	0.973	1.02	0.757
ChaGo-K-1	–	–	–	–	0.433	0.393	0.435	0.362	1.04	0.726	1.11	0.533	–	–	–	–	0.452	–	0.873	–
NCI-H358	0.917	0.877	0.91	0.682	0.704	0.784	0.55	0.436	–	–	–	–	0.723	0.73	0.681	0.605	0.705	–	–	0.679
NCI-H1944	0.853	0.886	0.903	0.847	0.433	0.409	0.398	0.427	–	–	–	–	1.15	1.01	1.2	1.04	0.356	–	–	1.16
NCI-H2342	–	–	–	–	0.49	0.432	0.463	0.418	–	–	–	–	–	–	–	–	0.425	–	–	–
NCI-H522	–	–	–	–	0.724	0.715	0.525	0.668	–	–	–	–	–	–	–	–	0.665	–	–	–
SK-MES-1	0.885	0.998	1.03	0.922	0.823	0.771	0.664	0.786	–	–	–	–	1.07	1.06	1.07	0.957	0.652	0.859	–	0.895
NCI-H2170	0.905	0.799	0.84	0.772	0.705	0.652	0.634	0.652	–	–	–	–	–	–	–	–	0.693	0.777	–	–
NCI-H1793	0.83	0.683	0.901	0.665	0.861	–	1.1	0.87	–	–	–	–	0.732	–	1.01	0.856	1.01	–	–	0.78
